# Reference: patent US10292989B2, “General anesthetics that are not neurotoxic” (University of Virginia Patent Foundation, priority 2014, dated 2019)
# Tests used:
# [1] = test system: young adolescent rats (P20-29); experiment: Loss of righting reflex (LORR) in young adolescent rats, i.p.; assay type: in vivo; details: Rattus norvegicus, ip; rats of both sexes P20-29, i.p., 15% β-cyclodextrin; read-out: estimated ED50 for loss of righting reflex (LORR)
# Method: (§2) For in vivo experiments, steroids were freshly dissolved in 15% β-cyclodextrin solution and injected intraperitoneally (i.p.) at escalating doses from 5 to 75 mg/kg.
# [2] = test system: adult female C57Bl/6 mice; experiment: Loss of righting reflex (LORR) in adult female C57Bl/6 mice, i.p.; assay type: in vivo, mouse
# Method: as §2
# adult naïve rats = experiment: Thermal paw withdrawal latency after i.t. injection in naive rats; assay type: in vivo, rat
# Method: a. […] We began by studying the role of postsynaptic T-channels in DH neurons using current-clamp recording from unidentified lamina I-II DH neurons in spinal cord slices in vitro. To exclude synaptic currents, our external solution contained 20 μM picrotoxin, 50 μM d-APV and 5 μM NBQX to block inhibitory and excitatory synaptic currents, respectively. We first injected −300 pA of current via the recording electrode for 500 ms, which hyperpolarized the resting membrane potential (RMP) and allowed T-channels to recover from inactivation. This protocol served to assess input resistance (Rin) and to evoke rebound action potential (AP) firing. The top line in FIG. 3A depicts the protocol of current injection while bottom traces represent membrane responses. […] To investigate the possible role of T-channels in spinal nociceptive transmission in vivo, we used intrathecal (i.t.) injections and measured thermal nociceptive responses to noxious heat in adult naïve rats using methods as we described elsewhere (Messinger et al., 2009; Obradovic et al., 2014, PLoS ONE 9(4): e91467. doi:10.1371/journal.pone.0091467). For i.t. injections, rats were briefly anesthetized with 1.5-2% isoflurane and thermal paw withdrawal latencies (PWLs) were measured starting from 30 minutes following injection. […]
# rats [3] = experiment: Sensorimotor tests (inclined plane, platform, ledge); assay type: in vivo, rat; details: 16 μg i.t., 60 min after injection
# Method: b. 3β-OH induces potent dose-dependent spinally-mediated analgesia in naïve rats. To assess its potential for spinally mediated analgesia, we injected 4 escalating doses of 3β-OH i.t. (from 0.003 to 16 μg) dissolved in 50 μL of vehicle (15% β-cyclodextrin) and measured thermal PWLs at 30 minutes intervals up to 150 minutes after injections. […] The analgesic effect was long-lasting, with higher doses of 3β-OH increasing PWLs by about 25-30% at 150 minutes post-injections. Note that PWLs remained stable in both paws during injections of vehicle (red lines). We also considered the possibility that i.t. injected 3β-OH may non-specifically affect performance by decreasing motor strength and/or coordination. […] Rats (n=6), were tested using an inclined plane, platform, and ledge before injection of the highest dose of 3β-OH (16 μg i.t.) and at 60 min after injection, corresponding to the time of maximal analgesia (FIG. 4).
# [4] = test system: rats with hind paw incision; experiment: Thermal hyperalgesia after plantar skin and deep tissue incision (PWL); assay type: in vivo, rat
# Method: In order to study the potential role of neuroactive steroids in perioperative analgesia we used a model of a plantar incision of skin and deep tissue in the hind paw of rats. Starting 2 hours after operation, thermal hyperalgesia to nociceptive heat stimuli was assessed measuring thermal PWLs. As depicted in FIG. 5, thermal hyperalgesia is profound up to two days after surgery as evidenced by attenuated PWLs in incised (right) paws by about 70% when compared to unincised (left) paws in the same animals. This gradually resolved and returned to near preoperative baseline values within 7 days. Note that thermal PWLs in unincised paws remained stable during this period.
# Next, we examined the ability of 3β-OH to influence thermal hyperalgesia in this rat model of perioperative pain. […] We applied the same dose of steroid or vehicle i.t. at 2, 24 and 48 hours after surgery and measured thermal PWLs in both paws (unincised paws, top panel of FIG. 6; incised paws, bottom panel of FIG. 6) at 30 minute intervals from 30-180 minutes after surgery in order to assess the time course and possible tolerance to any analgesic and antihyperalgesic effect of 3β-OH. FIG. 6 summarizes average results from multiple animals (6-13 per group). It is noteworthy that 3β-OH had little effect on thermal PWLs when compared to vehicle in incised paws when applied 2 hours after incision (bottom panel, filled round symbols) while in contralateral unincised paws (top panel, filled round symbols) the same dose induced analgesia at the 30 and 60 minute time points as evidenced by increased PWLs when compared to vehicle injections (top panel, filled circles). Furthermore, subsequent i.t. injections of 3β-OH at 24 hours (open squares) and 48 hours (filled triangles) induced long-lasting progressive anti-hyperalgesia in incised paws (bottom panel) with return of thermal PWLs to near baseline pre-incisional values measured at 180 minutes after injection (48 hours group). For example, at 48 hours post-surgery the average PWL of incised paws at 180 minutes post vehicle injection was about 4 seconds, while at 180 minutes post steroid injection PWLs were prolonged to about 9 seconds and approached pre-incisional values. In contrast, in unincised paws the same injections of 3β-OH induced analgesia of similar magnitude to the analgesia produced when steroid was injected 2 hours post-surgery, measuring in average 14-15 seconds on thermal PWLs (top panel).
# We next tested the idea that locally applied 3β-OH may abolish thermal hyperalgesia after paw incision. For these experiments we first obtained baseline (pre-incision) thermal PWLs (about 10 seconds) and repeated measurements 2 hours after surgery (about 2.5 seconds). We then injected (arrow on FIG. 7A) directly into the incised paw either 16 μg or 48 μg of 3β-OH in 100 μl of saline that was pH adjusted to 7.4 (n=6 rats in each group). We recorded PWLs for three consecutive days after injections.
# Note that PWLs in noninjected (unincised) paws (black squares and red diamonds) remained stable indicating lack of any systemic effect. […] For these experiments depicted on FIG. 7B, we first obtained pre-incision PWLs, and then injected 16 μg of 3β-OH repeatedly at the following time points: 2 hours, day 1, 2, 3 and 5 after post-surgery (n=6 rats). As shown on FIG. 7B (red symbols) repeated injections of steroid induced progressive anti-hyperalgesia from day 1 to day 5 post surgery with increase in PWLs from 50-90% when compared to PWLs in incised paws injected with vehicle (*, p<0.05; **, p<0.01; ***, p<0.001).
# [5] = biological target: T1, recombinant human Cav2.3 channels (Homo sapiens, UniProt Q15878); experiment: Recombinant human Cav2.3 currents in HEK 293 cells; assay type: cell-based; details: HEK293, read-out: inhibition of recombinant Cav2.3 currents (of control pre-drug values)
# T1 construct: expressed in transfected cells
# T1 sequence (Q15878 whole entry): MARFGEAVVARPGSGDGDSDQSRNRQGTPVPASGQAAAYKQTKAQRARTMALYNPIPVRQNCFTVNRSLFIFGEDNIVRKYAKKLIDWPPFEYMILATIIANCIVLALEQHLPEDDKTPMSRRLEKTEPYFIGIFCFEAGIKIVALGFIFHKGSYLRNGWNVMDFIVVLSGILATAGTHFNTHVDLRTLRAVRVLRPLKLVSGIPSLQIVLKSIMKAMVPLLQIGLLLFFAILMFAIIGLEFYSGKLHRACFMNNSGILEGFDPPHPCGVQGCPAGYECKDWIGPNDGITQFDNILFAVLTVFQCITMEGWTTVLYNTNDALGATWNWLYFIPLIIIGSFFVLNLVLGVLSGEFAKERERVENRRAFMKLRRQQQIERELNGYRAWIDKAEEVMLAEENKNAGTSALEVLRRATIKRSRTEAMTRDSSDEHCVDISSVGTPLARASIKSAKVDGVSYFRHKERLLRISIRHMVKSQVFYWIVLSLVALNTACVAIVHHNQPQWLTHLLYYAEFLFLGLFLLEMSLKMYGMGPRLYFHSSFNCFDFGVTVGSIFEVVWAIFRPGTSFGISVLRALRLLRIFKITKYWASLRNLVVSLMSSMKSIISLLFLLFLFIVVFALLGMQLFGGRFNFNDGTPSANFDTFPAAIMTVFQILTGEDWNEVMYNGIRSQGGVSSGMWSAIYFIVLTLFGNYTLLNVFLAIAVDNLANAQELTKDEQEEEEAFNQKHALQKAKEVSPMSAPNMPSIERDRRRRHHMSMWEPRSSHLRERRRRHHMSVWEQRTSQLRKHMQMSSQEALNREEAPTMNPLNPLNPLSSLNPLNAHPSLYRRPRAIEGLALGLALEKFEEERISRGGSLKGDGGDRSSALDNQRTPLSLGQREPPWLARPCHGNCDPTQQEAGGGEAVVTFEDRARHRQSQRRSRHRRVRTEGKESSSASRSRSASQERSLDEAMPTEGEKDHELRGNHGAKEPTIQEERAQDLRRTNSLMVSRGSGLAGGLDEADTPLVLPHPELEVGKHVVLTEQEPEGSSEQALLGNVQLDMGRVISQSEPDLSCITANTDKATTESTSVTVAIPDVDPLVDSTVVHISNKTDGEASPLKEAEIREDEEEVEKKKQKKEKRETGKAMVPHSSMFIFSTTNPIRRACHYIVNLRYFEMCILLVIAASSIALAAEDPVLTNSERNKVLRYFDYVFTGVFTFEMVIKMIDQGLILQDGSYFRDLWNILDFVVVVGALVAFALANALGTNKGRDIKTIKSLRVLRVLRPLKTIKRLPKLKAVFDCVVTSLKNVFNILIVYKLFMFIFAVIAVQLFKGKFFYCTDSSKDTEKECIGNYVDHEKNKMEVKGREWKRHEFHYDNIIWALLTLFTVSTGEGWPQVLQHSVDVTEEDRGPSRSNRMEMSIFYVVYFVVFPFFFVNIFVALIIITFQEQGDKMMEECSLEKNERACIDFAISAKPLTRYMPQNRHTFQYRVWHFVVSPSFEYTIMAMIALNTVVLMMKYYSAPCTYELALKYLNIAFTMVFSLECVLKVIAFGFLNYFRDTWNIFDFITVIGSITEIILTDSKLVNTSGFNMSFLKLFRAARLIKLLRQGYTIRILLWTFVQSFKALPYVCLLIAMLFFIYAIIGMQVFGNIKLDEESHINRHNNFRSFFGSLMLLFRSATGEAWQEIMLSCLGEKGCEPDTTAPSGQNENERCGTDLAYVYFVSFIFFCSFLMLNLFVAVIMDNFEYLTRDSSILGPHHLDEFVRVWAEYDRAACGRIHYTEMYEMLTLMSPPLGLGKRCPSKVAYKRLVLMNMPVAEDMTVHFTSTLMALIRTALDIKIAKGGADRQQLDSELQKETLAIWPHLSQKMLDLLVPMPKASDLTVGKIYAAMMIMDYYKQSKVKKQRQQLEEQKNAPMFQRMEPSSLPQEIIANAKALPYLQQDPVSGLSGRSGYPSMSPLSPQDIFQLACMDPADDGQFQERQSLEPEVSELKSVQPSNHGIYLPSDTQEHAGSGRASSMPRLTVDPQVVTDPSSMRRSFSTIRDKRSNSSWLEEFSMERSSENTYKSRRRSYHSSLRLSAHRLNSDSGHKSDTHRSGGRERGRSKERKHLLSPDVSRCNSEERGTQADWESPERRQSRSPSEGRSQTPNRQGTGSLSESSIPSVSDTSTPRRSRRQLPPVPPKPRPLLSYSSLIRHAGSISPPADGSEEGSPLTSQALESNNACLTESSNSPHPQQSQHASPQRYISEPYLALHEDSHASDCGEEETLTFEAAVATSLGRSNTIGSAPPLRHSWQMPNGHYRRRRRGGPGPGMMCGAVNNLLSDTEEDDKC
# T1 sequence (P54284 whole entry partner): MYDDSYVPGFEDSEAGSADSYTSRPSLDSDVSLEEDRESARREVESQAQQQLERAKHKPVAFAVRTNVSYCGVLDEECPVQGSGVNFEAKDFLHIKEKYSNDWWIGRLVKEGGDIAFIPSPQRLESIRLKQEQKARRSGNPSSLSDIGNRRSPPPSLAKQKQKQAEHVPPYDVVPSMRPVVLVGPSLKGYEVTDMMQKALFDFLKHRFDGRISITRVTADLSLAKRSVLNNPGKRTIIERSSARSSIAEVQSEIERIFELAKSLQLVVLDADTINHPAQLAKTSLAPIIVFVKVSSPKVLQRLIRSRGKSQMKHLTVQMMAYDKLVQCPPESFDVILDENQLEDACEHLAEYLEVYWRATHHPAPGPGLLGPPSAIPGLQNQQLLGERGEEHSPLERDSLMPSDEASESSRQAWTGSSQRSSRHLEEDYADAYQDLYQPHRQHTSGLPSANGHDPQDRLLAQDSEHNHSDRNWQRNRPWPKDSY
# Text: Here, we examined the sensitivity of recombinant human Cav2.3 channels stably expressed in human embryonic kidney (HEK) 293 cells to 3β-OH.
# adult monkeys = experiment: Acute anesthetic doses in adult monkeys, cardiac arrhythmias; assay type: in vivo, monkey; details: acute applications of anesthetic doses, preliminary study, data not shown
# Text: Although no preclinical data are currently available on the long-term use of 3β-OH, ECN, and related neuroactive steroids, previous evaluation of the safety of non-steroidal blockers of T-channels such as TTA compounds in dogs has disclosed no cardiovascular side effects.
# [6] = Lethality (LD50) in PND7 rat pups; details: rat, in vivo, ip
# rat pups (PND7) [7] = experiment: Lethality (LD50) in PND7 rat pups; details: LD50 vs ED50 for LORR
# rats [8] = experiment: 8-arm radial arm maze (RAM) after exposure at PND7; assay type: in vivo, rat
# Method: (§1) To assess cognitive abilities of our rats we tested their spatial working memory using the 8-arm radial arm maze test (RAM). We began by comparing the overall appearance and daily weight of rats in each group (saline, cyclodextrin, 3β-OH at 10 mg/kg and ketamine at 40 mg/kg) since nutritional status and general state of health are critically important for cognitive development. Based on their general appearance, rats in different groups could not be distinguished from each other. Similarly, there was no difference in daily weight gain among the groups (FIG. 13A). The time points when the animals were treated (PND 7), food restricted (from PND 45), tested on the RAM (from PND 53) and permitted to eat ad libitum (from PND 70) are indicated on the graph. Food restriction, a necessary component of the RAM learning protocol, was limited so that no rat lost more than 10%-15% of its body weight.
# To further scrutinize how the acquisition rate of 3β-OH-treated rats compares to ketamine and vehicle groups, we plotted the cumulative percent scores for ketamine-treated animals relative to recorded cumulative percent scores for other groups, using a percent-percent plot (p-p plot) (FIG. 14). […] The learning behavior of 3β-OH-treated rats is similar to that of sham controls resulting in a large gap (shaded area) in learning ability between ketamine-treated (lower blue dotted line) and 3β-OH-treated animals (upper red dotted line). A slight slowing in the acquisition rate observed with 3β-OH-treated rats when compared to vehicle controls (saline—SAL and cyclodextrin—CYCL) during the mid-portion of training (as discussed in FIG. 13C) is highlighted with rectangles.
# [9] = Daily weight gain after exposure at PND7; assay type: in vivo, rat; details: 3β-OH at 10 mg/kg, ketamine at 40 mg/kg, treated PND 7
# Method: as §1
# [10] = biological target: T2, T-channels in rat DRG neurons (Rattus norvegicus, UniProt Q9EQ60); details: cited from earlier work
# T2 construct: endogenous in cells; host or cells: acutely dissociated rat DRG neurons
# T2 sequence (Q9EQ60 whole entry): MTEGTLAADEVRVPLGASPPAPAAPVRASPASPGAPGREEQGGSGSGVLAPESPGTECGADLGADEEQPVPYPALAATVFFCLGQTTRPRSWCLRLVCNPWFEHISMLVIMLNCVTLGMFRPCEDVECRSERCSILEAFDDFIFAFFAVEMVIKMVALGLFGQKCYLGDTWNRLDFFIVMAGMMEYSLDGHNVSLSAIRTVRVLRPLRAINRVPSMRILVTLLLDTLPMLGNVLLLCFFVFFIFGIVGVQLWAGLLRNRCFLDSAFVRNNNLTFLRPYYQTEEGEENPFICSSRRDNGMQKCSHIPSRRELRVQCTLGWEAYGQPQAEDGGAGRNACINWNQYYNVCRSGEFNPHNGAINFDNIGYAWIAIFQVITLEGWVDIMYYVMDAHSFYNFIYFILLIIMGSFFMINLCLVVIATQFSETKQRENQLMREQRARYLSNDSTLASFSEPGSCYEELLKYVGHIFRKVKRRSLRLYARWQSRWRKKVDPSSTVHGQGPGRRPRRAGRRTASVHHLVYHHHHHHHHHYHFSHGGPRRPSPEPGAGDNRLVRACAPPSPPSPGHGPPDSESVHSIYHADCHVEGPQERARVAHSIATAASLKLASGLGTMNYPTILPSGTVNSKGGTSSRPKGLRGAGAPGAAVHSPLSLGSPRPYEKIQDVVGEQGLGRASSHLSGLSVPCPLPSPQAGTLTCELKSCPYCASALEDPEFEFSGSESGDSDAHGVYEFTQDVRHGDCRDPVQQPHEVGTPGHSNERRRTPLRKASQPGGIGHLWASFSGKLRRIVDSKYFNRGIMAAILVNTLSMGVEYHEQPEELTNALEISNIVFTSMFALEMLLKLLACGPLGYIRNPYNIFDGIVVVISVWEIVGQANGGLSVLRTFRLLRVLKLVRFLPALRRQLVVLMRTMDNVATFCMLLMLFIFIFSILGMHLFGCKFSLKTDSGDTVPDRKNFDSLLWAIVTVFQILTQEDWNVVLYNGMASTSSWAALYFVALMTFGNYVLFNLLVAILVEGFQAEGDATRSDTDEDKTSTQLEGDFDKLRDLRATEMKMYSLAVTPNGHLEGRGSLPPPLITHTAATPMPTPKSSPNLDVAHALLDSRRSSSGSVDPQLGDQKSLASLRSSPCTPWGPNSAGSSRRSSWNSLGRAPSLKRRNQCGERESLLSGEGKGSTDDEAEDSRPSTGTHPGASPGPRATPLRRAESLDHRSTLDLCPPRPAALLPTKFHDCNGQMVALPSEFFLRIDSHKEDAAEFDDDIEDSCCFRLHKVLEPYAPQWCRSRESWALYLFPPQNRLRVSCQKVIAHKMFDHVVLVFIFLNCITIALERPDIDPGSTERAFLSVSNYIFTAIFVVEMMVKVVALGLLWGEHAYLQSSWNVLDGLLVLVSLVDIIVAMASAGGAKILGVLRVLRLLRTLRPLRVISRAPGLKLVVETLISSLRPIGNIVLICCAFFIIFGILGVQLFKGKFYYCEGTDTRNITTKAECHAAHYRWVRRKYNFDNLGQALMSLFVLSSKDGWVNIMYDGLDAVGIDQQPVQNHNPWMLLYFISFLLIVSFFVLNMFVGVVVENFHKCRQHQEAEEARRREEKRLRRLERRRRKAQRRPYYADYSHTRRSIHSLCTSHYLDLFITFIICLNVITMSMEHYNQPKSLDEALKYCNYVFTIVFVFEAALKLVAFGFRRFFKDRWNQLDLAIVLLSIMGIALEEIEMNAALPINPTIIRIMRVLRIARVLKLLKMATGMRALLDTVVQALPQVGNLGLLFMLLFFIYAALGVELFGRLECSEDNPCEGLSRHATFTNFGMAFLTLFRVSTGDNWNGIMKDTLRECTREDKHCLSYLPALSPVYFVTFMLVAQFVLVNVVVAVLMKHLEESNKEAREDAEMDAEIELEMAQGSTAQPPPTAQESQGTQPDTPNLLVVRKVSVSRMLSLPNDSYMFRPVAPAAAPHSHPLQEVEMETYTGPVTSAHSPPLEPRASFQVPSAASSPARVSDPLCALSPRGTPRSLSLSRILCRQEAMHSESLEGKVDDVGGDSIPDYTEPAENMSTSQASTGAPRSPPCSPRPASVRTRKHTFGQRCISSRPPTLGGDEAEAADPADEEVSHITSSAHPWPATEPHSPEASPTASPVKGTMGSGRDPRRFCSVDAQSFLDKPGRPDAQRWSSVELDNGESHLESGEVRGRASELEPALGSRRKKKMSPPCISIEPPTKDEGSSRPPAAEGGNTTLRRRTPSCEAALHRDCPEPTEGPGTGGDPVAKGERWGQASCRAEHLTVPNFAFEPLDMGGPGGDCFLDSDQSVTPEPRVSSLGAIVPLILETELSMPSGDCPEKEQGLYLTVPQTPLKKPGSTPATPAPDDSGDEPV
# [11] = test system: T-currents in nucleus reticularis thalami (nRT); details: cited from earlier work
# GABAA currents = details: cited from earlier work
# NMDA currents = details: cited from earlier work
# rat pups (PND7) [12] = experiment: Loss of righting reflex (LORR) in PND7 rat pups, i.p.
# [13] = test system: activated caspase-3 in developing brain; experiment: Activated caspase-3 staining of vulnerable brain regions in PND7 rat pups
structure (smiles),measurement,setting,value
"C[C@]12CC[C@H](O)C[C@H]1CC[C@@H]1[C@@H]2CC[C@]2(C)[C@@H](C#N)CC[C@@H]12 [3β-OH, (3β,5β,17β)-3-hydroxyandrostane-17-carbonitrile]",ED50,[1],16 ± 0.4 mg/kg
same,duration of LORR,[2]; 75 mg/kg dose,up to 50 min
same,ED50,"[2]; Mus musculus, ip, adult female C57Bl/6 mice",46 ± 2 mg/kg
same,prolongation of PWLs over pre-injection baseline,"adult naïve rats; i.t. 0.003 to 16 μg, 60 minutes post-injection",up to 80%
same,increase of PWLs,"adult naïve rats; i.t., higher doses, 150 minutes post-injection",25-30%
same,sensorimotor responses after vs before injection,rats [3],did not differ significantly
same,increase in PWLs compared to incised paws injected with vehicle,"[4]; 16 μg i.pl. repeated at 2 hours, day 1, 2, 3 and 5, day 1 to day 5",50-90%
same,thermal PWL of incised paw,"[4]; 16 μg i.pl. single injection, day 1 after incision",about 6 seconds
same,thermal PWL of incised paw vs vehicle,"[4]; 16 μg i.pl. single injection, day 2",not significantly different
same,effect on thermal PWLs vs vehicle in incised paws,[4]; 16 μg i.t. applied 2 hours after incision,little effect
same,thermal PWL of unincised paws,[4]; 16 μg i.t. at 24 and 48 hours post-surgery,14 to 15 s
same,thermal PWL of incised paws,"[4]; 16 μg i.t., 48 hours post-surgery, 180 minutes post injection, vehicle about 4",about 9 seconds
same,thermal PWL of incised paw,"[4]; 48 μg i.pl. single injection, day 1 post incision",about 6.5 seconds
same,thermal PWL of incised paw,"[4]; 48 μg i.pl. single injection, day 2 post incision",about 7 seconds
same,time after surgery for which hyperalgesia is reduced,[4]; data not shown,at least 48 hours
same,inhibition at 3 µM,[5],38 ± 4%
same,cardiac arrhythmias,adult monkeys,did not notice cardiac arrhythmias
same,LD50,[6],61.9 ± 4.6 mg/kg
same,therapeutic index,rat pups (PND7) [7],about 22
same,days required to reach learning criterion in RAM,"rats [8]; 3β-OH at 10 mg/kg, ketamine at 40 mg/kg at PND 7, tested from PND 53",indistinguishable from vehicle animals
same,rats reaching criterion in the allotted time,rats [8]; p-p plot,100%
same,rats that had reached criterion at the same point of training (p-p plot),"rats [8]; rat, in vivo",roughly half
same,daily weight gain among the groups,[9],no difference
same,maximal block of T-current,[10]; DRG neurons,100%
same,IC50,"[10]; acutely dissociated DRG cells, read-out: IC50, block of T-currents in DRG cells",3000 nM
same,IC50,[11],2000 nM
same,effect on GABAA currents,GABAA currents,devoid of any direct effects
same,effect on postsynaptic NMDA currents,NMDA currents,devoid of any direct effects
same,calculated EC50 (duration of LORR),"rat pups (PND7) [12]; PND7 rat pups, i.p.",34.5 ± 3.7 mg/kg
same,ED50,"rat pups (PND7) [12]; Rattus norvegicus, ip, read-out: calculated ED50 for LORR",2.9 ± 0.28 mg/kg
same,equipotent dose comparable to ketamine 40 mg/kg,"rat pups (PND7) [12]; i.p., based on LORR",10 mg/kg
same,equipotent single dose comparable to ketamine 20 mg/kg,"rat pups (PND7) [12]; i.p., based on LORR",5 mg/kg
same,apoptotic (caspase-3) activation compared with vehicle,"[13]; 5 mg/kg i.p. every hour, six doses, all examined regions except subiculum",did not cause significant apoptotic activation
same,"caspase-3 activation, twice higher dose compared with lower dose","[13]; 10 mg/kg vs 5 mg/kg i.p., 6 doses hourly",small increase
same,caspase-3 activation at higher dose compared with vehicle,"[13]; 3β-OH 10 mg/kg or ketamine 40 mg/kg i.p., 6 doses hourly, 3β-OH: except subiculum",no significant increase
